{"source": "patent US4067997A", "about": "“Synergistic microbecidal composition and method” (priority 1976, dated 1978)", "test_in_all_cases": "MIC on mass basis (Example V procedure)", "key": {"[1]": {"test_system": "Escherichia coli", "format": "cell-based", "how_it_was_run": "(§1)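 MIC was determined on a mass (μg/ml) basis rather than a molar basis against gram-negative and gram-positive organisms. Phenolic compounds were tested alone, combined with glycerol monolaurin (GML), and combined with GML plus calcium EDTA and BHA.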"}, "[2]": {"test_system": "Nocardia asteroides", "format": "cell-based", "how_it_was_run": "as §1"}, "[3]": {"test_system": "Staphylococcus aureus", "format": "cell-based", "how_it_was_run": "as §1"}, "[4]": {"test_system": "Streptococcus mutans", "format": "cell-based, Streptococcus mutans (ATCC 10441)", "experimental": "The essential procedure of Example I was followed with a series of phenolic compounds, with the exception that the test method was conducted on a mass (μg/ml) basis rather than a molecular (mol/ml) basis of the foregoing tests, since the long established phenol-coeffecient test is on a mass rather than molecular basis. Additionally, a different but closely related group of organisms were used in this test, in order to give a complete representative span on gram-negative, gram-positive and fungus organisms. Additionally, the phenolic derivatives chosen for test purposes include a number of derivatives which are presently accepted by the FDA as food-grade phenolic microbicides.\nThe same procedure of Example V was repeated but with combinations of mono-laurin (GML).\nThe procedure of Example V was repeated with combinations of glycerol mono-laurin (GML) and ethylenediamine tetraacetic acid (EDTA) as the calcium salt and in combination with BHA."}}}
{"smiles": "CCCCCCCCCCCC(=O)OCC(O)CO", "note": "(centres unmarked) [GML, glycerol mono-laurin]", "values": [{"measurement": "MIC", "setting": "[1]; Table 13, Escherichia coli", "result": "> 1,000 μg/ml"}, {"measurement": "MIC", "setting": "[1]; Table 14, Escherichia coli", "result": "> 1,000 μg/ml"}, {"measurement": "MIC", "setting": "[1]; Table 16, Escherichia coli, no unit in table (Example 5 procedure, mass basis)", "result": "> 1,000"}, {"measurement": "MIC of GML", "setting": "[1]; Table 17, EDTA 0", "result": "> 10,000 μg/ml"}, {"measurement": "MIC of GML", "setting": "[1]; Table 17, EDTA 125", "result": "> 10,000 μg/ml"}, {"measurement": "MIC of GML", "setting": "[1]; Table 17, EDTA 250", "result": "> 10,000 μg/ml"}, {"measurement": "MIC of GML", "setting": "[1]; Table 17, EDTA 500", "result": "> 10,000 μg/ml"}, {"measurement": "MIC of GML", "setting": "[1]; Table 17, EDTA 1,000", "result": "> 10,000 μg/ml"}, {"measurement": "MIC of GML", "setting": "[1]; Table 17, EDTA 5,000", "result": "> 10,000 μg/ml"}, {"measurement": "MIC of GML", "setting": "[1]; Table 17, EDTA 10,000", "result": "> 10,000 μg/ml"}, {"measurement": "MIC", "setting": "[2]; Table 13, Nocardia asteroides", "result": 15.60, "unit": "µg/mL"}, {"measurement": "MIC", "setting": "[2]; Table 14, Nocardia asteroides", "result": 7.80, "unit": "µg/mL"}, {"measurement": "MIC", "setting": "[2]; Table 16, Nocardia asteroides, no unit in table", "result": 10}, {"measurement": "MIC of GML", "setting": "[2]; Table 17, EDTA 0", "result": "< 10", "unit": "µg/mL"}, {"measurement": "MIC of GML", "setting": "[2]; Table 17, EDTA 125", "result": 100, "unit": "µg/mL"}, {"measurement": "MIC of GML", "setting": "[2]; Table 17, EDTA 250", "result": "< 10", "unit": "µg/mL"}, {"measurement": "MIC of GML", "setting": "[2]; Table 17, EDTA 500", "result": "< 10", "unit": "µg/mL"}, {"measurement": "MIC of GML", "setting": "[2]; Table 17, EDTA 1,000", "result": "< 10", "unit": "µg/mL"}, {"measurement": "MIC of GML", "setting": "[2]; Table 17, EDTA 5,000", "result": "< 10", "unit": "µg/mL"}, {"measurement": "MIC of GML", "setting": "[2]; Table 17, EDTA 10,000", "result": "< 10", "unit": "µg/mL"}, {"measurement": "MIC", "setting": "[3]; Table 13, Staphylococcus aureus", "result": 31.25, "unit": "µg/mL"}, {"measurement": "MIC", "setting": "[3]; Table 14, Staphylococcus aureus", "result": 31.25, "unit": "µg/mL"}, {"measurement": "MIC", "setting": "[3]; Table 16, Staphylococcus aureus, no unit in table", "result": "1,000"}, {"measurement": "MIC of GML", "setting": "[3]; Table 17, EDTA 0", "result": "1,000 μg/ml"}, {"measurement": "MIC of GML", "setting": "[3]; Table 17, EDTA 125", "result": "1,000 μg/ml"}, {"measurement": "MIC of GML", "setting": "[3]; Table 17, EDTA 250", "result": "1,000 μg/ml"}, {"measurement": "MIC of GML", "setting": "[3]; Table 17, EDTA 500", "result": 500, "unit": "µg/mL"}, {"measurement": "MIC of GML", "setting": "[3]; Table 17, EDTA 1,000", "result": 100, "unit": "µg/mL"}, {"measurement": "MIC of GML", "setting": "[3]; Table 17, EDTA 5,000", "result": "< 10", "unit": "µg/mL"}, {"measurement": "MIC of GML", "setting": "[3]; Table 17, EDTA 10,000", "result": "< 10", "unit": "µg/mL"}, {"measurement": "MIC", "setting": "[4]; Table 13, Streptococcus mutans", "result": 31.25, "unit": "µg/mL"}, {"measurement": "MIC", "setting": "[4]; Table 14, Streptococcus mutans", "result": 31.25, "unit": "µg/mL"}]}
